Test [1] has as its system Staphylococcus aureus ATCC 29213 (MSSA). Description: minimum inhibitory concentration; extreme values may be limits of the assay. In a few lines: (§1)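 Methicillin-susceptible and methicillin-resistant Staphylococcus aureus were tested by broth microdilution in 96-well plates, following CLSI guidance with a resazurin redox read-out. Compounds were tested from 0 to 100 µM and incubated with bacteria for 24 h at 37°C, then 30 µl of 0.015% resazurin was added for 2–4 h, with positive controls on each plate. The minimum inhibitory concentration was the lowest concentration that stayed blue rather than turning pink. Runs were done at least twice in triplicate.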

The test system of test [2] is Staphylococcus aureus ATCC 700699 (MRSA). Described as above. In a few lines:
as §1

Converted amounts (≈) assume the structure as drawn.

For the molecule `CCOc1ccc2cc(-c3nn(C(C)(C)C)c(N)c3C(N)=O)cnc2c1`, the minimum inhibitory concentration in test [1] and in test [2] was > 50 µM in each case.

On to `CC1COC2(CCN(c3nc(=O)c4cc(C(F)(F)F)cc([N+](=O)[O-])c4s3)CC2)O1` (stereo unspecified), for which the minimum inhibitory concentration in test [1] and in test [2] was > 50 µM throughout.

Turning to `Cc1nnc(NCc2cccc(Cl)c2)c2ccccc12`, the minimum inhibitory concentration in test [1] and in test [2] was > 50 µM each time.

With `CC(c1cc(Cl)cc(Cl)c1)N(C)c1ncc2c(N)nc(N)nc2n1` (stereo unspecified), the minimum inhibitory concentration in test [1] and in test [2] was 50 µM (≈ 18.2 µg/mL) each time.

In the case of `Clc1ccc(CCNc2cc(-c3ccccc3)nc3ncnn23)cc1`, the minimum inhibitory concentration in test [1] and in test [2] was > 50 µM each time.

As to `CCCn1c(CNc2ccccc2O)nc2ccccc21`, the minimum inhibitory concentration in test [1] and in test [2] was > 50 µM throughout.

Regarding `Nc1ncc(Br)cc1-c1nc2cc(Cl)cnc2[nH]1`, the minimum inhibitory concentration in test [1] and in test [2] was > 50 µM throughout.

For `O=C(Nc1ccc(F)c(-c2nc3cc(-c4ccccc4)cnc3[nH]2)c1)N1CCCC1`, the minimum inhibitory concentration in test [1] and in test [2] was > 50 µM in each case.

These data come from the supplement of paper PMC6206229.
